Results as given in patent publication US11926826B2, “Twist signaling inhibitor compositions and methods of using the same” (City of Hope, priority 2016, dated 2024).

Experiments:
TWIST1 = TWIST1 knockdown after Lipofectamine 2000 transfection of siRNA in MDA-MB-435S cells (western blot); type: cell-based, human; details: unmodified vs passenger-strand modified si419
Method: Transient transfection of MDA-MB-435S GFP+ffluc was carried out using LIPOFECTAMINE® 2000 (Thermo Fisher Scientific, Waltham, MA) according to the manufacturer's instructions. LIPOFECTAMINE® 2000 transfection was used to confirm the functionality of the siRNA (si419 and si494) prior to testing their efficacy with MSNs. Transfection of siRNA with MSNs was carried out by incubating the MSNs with the siRNA overnight at 4° C. while rotating the tube constantly. The mixture consisted of 7 parts MSN (diluted to 500 ng/ul in sterile PBS) to 1 part siRNA (diluted to 10 uM). The final concentration for of MSNs and siRNA applied to cells was 17.5 ng/ul and 50 nM, respectively.
Western Blot. Following siRNA treatment described above, cells were lifted from tissue culture wells with 0.25% trypsin, pelleted, and lysed in RIPA buffer. Protein concentration was determined using a BCA Assay (Thermo Fisher Scientific). A total of 30 μg of protein per lane was run on 4% stacking and 12% resolving polyacrylamide gels. Following gel electrophoresis, protein was transferred to Immobilon-P PVDF membrane (Millipore, Billerica, MA) using a Trans-Blot SD Semi-Dry Transfer Cell (Bio-Rad, Hercules, CA). Membranes were then blocked with 5% dry milk dissolved in 1×PBS with 0.1% Tween-20. Antibodies were diluted in blocking buffer (1:250 for anti-TWIST1 and 1:2,500 for anti-Actin). […]

TWIST = TWIST knockdown after Lipofectamine 2000 transfection in A2780R (western blot); type: cell-based; details: over three days post transfection
Method: Cell Culture. A2780R and all derivatives of Ovcar8 were grown in RPMI 1640 (Genesee Scientific, San Diego, CA) in a tissue culture incubator at 37° C., 5% CO2, and 90% humidity. Growth medium was supplemented with 10% fetal bovine serum and 1% penicillin/streptomycin. Cells were passaged every 2-4 days using 0.25% trypsin (Genesee Scientific). Where indicated, cells were transfected with Lipofectamine 2000 (Thermo Fisher, Waltham, MA) according to the manufacturer's instructions. A2780R cells are a cisplatin resistant derivative of A2780.
Western Blotting. Following siRNA treatment, cells were pelleted and lysed in RIPA buffer. Protein concentration was determined by BCA assay (Thermo Fisher). Following SDS-PAGE, protein was transferred to Amersham PVDF membrane (Genesee Scientific) using a BioRad Trans-Blot SD semi-dry transfer unit. Blots were then blocked in milk for one hour at room temperature or overnight at 4° C. Incubation with primary antibody took place for one hour at room temperature or overnight at 4° C. Antibodies were diluted in 5% milk, with 0.1-0.2% Tween-20. Antibodies used were TWIST 2c1a (Santa Cruz Biotechnology, Dallas, TX) at 1:250-1:500 dilution, β-Actin, A1978 (Sigma Aldrich, St. Louis, MO) at 1:2500-1:5000 dilution; and Horseradish Peroxidase (HRP) conjugated anti-mouse secondary antibodies. […]

Ovcar8-IP tumors = assay: Ovcar8-IP intraperitoneal tumor model in NSG mice, MSN-siRNA with or without cisplatin; type: in vivo; details: siRNA alone, without cisplatin
Method: Animal Studies. The animal studies conducted in these experiments were done in accordance with a protocol approved by the Institutional Animal Care and Use Committee at the City of Hope Beckman Research Institute. A total of 48 female NOD.Cg-Prkdc^scidIl2rg^tm1Wj1/SzJ (NSG) mice (The Jackson Laboratory, Bar Harbor, ME) were used. Ten week old (on average) mice were administered an intraperitoneal injection (IP) of 2.5×10^6 Ovcar8-IP cells in 200 μl of RPMI media. For all studies, mice were placed into four groups: MSN-siQ, MSN-siQ+cisplatin, MSN-si419H, and MSN-si419H+cisplatin (n=4 or n=8). Previous reports show no cellular uptake without MSNs^14, thus a siRNA-only group was not added to this study.
Bioluminescent imaging of mice (using Xenogen IVIS 100 biophotonic imaging system, STTARR, Toronto, Ontario, Canada) commenced seven days after injection of tumor cells in order to ensure engraftment, and continued once a week for four weeks. Mice were given a 100 μl IP injection of 20 mg/ml D-Luciferin (PerkinElmer, Waltham, MA). Ten minutes after the D-luciferin injection, mice were anesthetized with isoflurane (2%-5%) and placed in the biophotonic imager, and images were taken within two minutes. An alfalfa-free version of the regular rodent diet (alfalfa-free CA-1) was administered to the siQ mice to prevent autofluorescence from the regular diet.
IP injections of MSN+siRNA (siQ fluorescently labeled with ALEXAFLUOR® 647 or si419H) were conducted one week after the inoculation of Ovcar8-IP cells and done once or twice per week for a total of four weeks. Mice received 105 μl of 500 ng/μl MSN complexed with 15 μl of 10 μM siRNA per week, divided into one full or two half doses (n=4 and n=8, respectively). This is equivalent to […] MSN/week. Weekly 3 mg/kg IP cisplatin injections were given starting two weeks after initial inoculation of cells.
At completion of the experiment, all animals were euthanized via CO2 asphyxiation. […]
Statistics. All in vivo data was analyzed using one-way ANOVA with correction for multiple comparisons, comparing all groups to MSN-siQ treatment group. […]

## si419: anti-TWIST siRNA; passenger 5′-GGACAAGCUGAGCAAGAUU-3′ (SEQ ID No: 1), guide 5′-AAUCUUGCUCAGCUUGUCCUU-3′ (SEQ ID No: 2) (listed as RNA, chemistry not fully specified)
TWIST1
  knockdown (efficiency, FIG. 6): approximately 80%
TWIST
  TWIST expression: completely inhibit TWIST expression
Ovcar8-IP tumors
  change in tumor weight: did not produce a statistically significant change in tumor weight
